Series [1] has as its system Par-4 secretion from mouse fibroblasts. Kind of series: Par-4 secretion into conditioned medium, quantitative Western blot normalised to CollA1. Format: cell-based. Conditions: for Relative Levels of Par-4 Secretion by Arylquins Administered at 500 nM: 24 h, mouse fibroblasts, CM; for Par-4 secretory activity (in words): SAR discussion; for Par-4 secretory activity (in words) / Ratio of Par-4 Secretion by Arylquin 1 Relative to Vehicle: 500 nM. Here is the method: Calibration curve developed using fixed amounts (0.05-5 ng) of recombinant TRX-Par-4. […] Therefore the concentration was 0.82 ng/40 μL or 540 pM, In the same fashion, calculation for Par-4 concentration using vehicle (v) was 280 pM.
Biological activity of 3-Arylquinolines. […] After 24 h exposure, the CM and lysates were subjected to quantitative Western blot analysis for Par-4 and collagen (CollA1).
Co-immunoprecipitation and Western blot analysis. Protein extracted from cell lysates was filtered, pre-cleared with 25 μL (bed volume) of protein G-Sepharose beads and immunoprecipitated with 1 μg of respective antibodies. The eluted proteins were resolved by SDS-PAGE, and subjected to Western blot analysis as described previously. Bensch, et al. Nature 1968, 218(5147):1176-1177.
Statistical analyses. All experiments were performed in triplicate to verify the reproducibility of the findings. […] Statistical analyses were carried out with Statistical Analysis System software (SAS Institute, Cary, N.C.) and P values were calculated using the Student t test.
In general terms: A western blot detects proteins with antibodies after separation by electrophoresis.

The target in another series is hERG potassium channel (Homo sapiens, UniProt Q12809). An excerpt:
hERG Binding studies, An HEK-293 cell line stably expressing the hERG potassium channel (accession number U04270) referred to as hERG-HEK cells were received at passage 11 (P11) from Millipore (CYL3006, lot 2, Billerica, Mass.). [^3H]-Dofetilide (specific activity of 80 Ci/mmol; labeled on the N-methyl group) was obtained from American Radiolabeled Chemicals (St. Louis, Mo.). Other chemicals and solvents were obtained from Sigma-Aldrich (Milwaukee, Wis.). Polyethylenimine (PEI) was obtained from Fluka/Sigma-Aldrich (St. Louis, Mo.), and Minimium Essential Medium (MEM) with GlutaMAX™ and phenol red, MEM non-essential amino acids solution (NEAA, 100×), G418 disulfate salt solution, fetal bovine serum (FBS), 0.05% Trypsin-EDTA 1× with phenol red, and Hank's balanced salt solution (HBSS) were obtained from Life Technologies (Carlsbad, Calif.).
hERG-HEK Cell culture. hERG-FIEK Cells were cultured according to the protocol provided by Millipore. Cells were maintained in MEM (with glutamax and phenol red) supplemented with 10% […], 1% NEAA and […], and incubated at 37 ° C. in a humidified atmosphere with 5% CO2. Frozen aliquots of cells were transferred into T-75 cm^2 flasks and allowed to adhere for 4-8 h. The medium was replaced every 2 days. Passages were carried out at least 3 times after thawing at 6 day intervals. Cells were dissociated with trypsin/EDTA and seeded into new 150×25 mm dishes at 2-3×10^6 cells per dish and placed at 30° C., 5% CO2, for 40-48 h prior to membrane preparation. Membrane preparation occurred 6 days after the last passage (passage 20).
Membrane preparation. Cell membrane preparation was based on previous methods. See Herrmann, et al. J Mol Biol 1996, 264:933-953; Lavie, et al. J Org Chem 1965, 30(6):1774-1778; Chen, et al. A Practical Guide to Assay Development and High-throughput Screening in Drug Discovery, CRC Press Taylor and Francis Group, Boca Raton, Fla., 2010; Redfern, et al. Cardiovasc Res 2003, 58, 32-45. Cells were rinsed twice with HBSS at 37° C. and collected by scraping the dishes in 20 mL of ice-cold 0.32 M sucrose and homogenized on ice with a Teflon pestle using a Maximal Digital homogenizer (Fisher Scientific, Pittsburgh, Pa.) at 280 rpm for 30 sec. Homogenates were centrifuged at 300 g and 800 g for 4 min each at 4° C. Pellets were resuspended in 9 mL of ice-cold Milli-Q water and osmolarity restored by addition of 1 mL of 500 mM Tris buffer (pH 7.4) followed by suspension and centrifugation at 20,000 g for 30 min at 4° C. Pellets were homogenized in 2 mL assay buffer (50 mM Tris, 10 mM KCl, and 1 mM MgCl2, 4° C.) and aliquots of cell membrane suspensions were stored at −80° C. and thawed the day of the [^3H]-dofetilide binding assay. Protein content was determined prior to the assay using a Bradford protein assay with bovine albumin as the standard.
[^3H]-Dofetilide binding assay. [^3H]-Dofetilide binding assays using hERG-HEK293 cell membranes were based on previous methods. Redfern, et al. Cardiovasc Res 2003, 58, 32-45. Assays determining concentration-response were conducted in duplicate, and three independent assays were performed for each analog evaluated. […] Radioactivity was determined by liquid scintillation spectrometry using the Tri-Carb 2100-TR Liquid Scintillation Analyzer (Perkin-Elmer Life and Analytical Sciences) […]

Structures are written as SMILES.

Sequence of hERG potassium channel (Q12809 whole entry): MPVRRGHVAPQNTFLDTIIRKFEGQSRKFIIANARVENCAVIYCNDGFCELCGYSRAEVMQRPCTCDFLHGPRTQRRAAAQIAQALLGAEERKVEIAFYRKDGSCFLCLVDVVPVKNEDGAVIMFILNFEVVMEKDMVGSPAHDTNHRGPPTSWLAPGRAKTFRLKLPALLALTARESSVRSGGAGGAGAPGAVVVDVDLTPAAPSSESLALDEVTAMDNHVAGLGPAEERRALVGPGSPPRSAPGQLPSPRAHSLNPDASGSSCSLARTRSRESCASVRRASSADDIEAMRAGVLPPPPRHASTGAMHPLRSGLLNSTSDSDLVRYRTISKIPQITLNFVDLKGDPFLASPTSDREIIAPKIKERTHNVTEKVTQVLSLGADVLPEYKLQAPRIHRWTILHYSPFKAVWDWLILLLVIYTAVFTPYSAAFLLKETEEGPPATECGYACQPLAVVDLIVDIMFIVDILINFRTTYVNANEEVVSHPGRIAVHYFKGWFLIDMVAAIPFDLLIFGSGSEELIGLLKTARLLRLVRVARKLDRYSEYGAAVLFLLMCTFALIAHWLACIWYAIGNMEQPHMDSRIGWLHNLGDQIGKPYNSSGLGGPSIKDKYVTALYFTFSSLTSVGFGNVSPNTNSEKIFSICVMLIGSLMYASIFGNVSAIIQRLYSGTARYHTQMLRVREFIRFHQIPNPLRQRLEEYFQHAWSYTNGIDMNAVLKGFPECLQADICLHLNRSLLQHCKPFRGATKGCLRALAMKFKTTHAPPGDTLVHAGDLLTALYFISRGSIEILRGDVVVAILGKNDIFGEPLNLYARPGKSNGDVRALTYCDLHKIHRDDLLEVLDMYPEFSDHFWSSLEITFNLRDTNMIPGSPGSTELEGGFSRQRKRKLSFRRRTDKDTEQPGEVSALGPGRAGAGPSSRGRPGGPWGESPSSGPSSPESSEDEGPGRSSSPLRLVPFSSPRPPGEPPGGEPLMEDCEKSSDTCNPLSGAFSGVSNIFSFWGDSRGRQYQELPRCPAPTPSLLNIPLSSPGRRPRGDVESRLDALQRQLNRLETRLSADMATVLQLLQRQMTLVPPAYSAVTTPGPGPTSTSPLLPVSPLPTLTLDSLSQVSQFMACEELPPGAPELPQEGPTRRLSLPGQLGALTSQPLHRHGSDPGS

A word on the IC50: it is the concentration that inhibits the measured activity by half. A higher IC50 goes with a need for much substance. `CN(C)c1ccc2cc(-c3cccc(F)c3)c(N)nc2c1` [Arylquin 1d]: the “Relative Levels of Par-4 Secretion by Arylquins Administered at 500 nM” value (from here on “Relative Levels of Par-4 Secretion”) in series [1] (Table 1) worked out at 66.8 ± 10.9. For the same compound, the “Par-4 secretory activity (in words)” value in series [1] was “weakly active”. The compound also displayed a 50% inhibitory concentration (IC50) against hERG potassium channel of 1.59 ± 0.39 µM.
On to `CN(C)c1ccc2cc(-c3ccccc3F)c(N3CCOCC3)nc2c1` [Arylquin 13a, 3-(2-Fluorophenyl)-NA-dimethyl-2-morpholinoquinolin-7-amine], for which, in series [1] (Table 2), the “Ratio of Par-4 Secretion by Arylquin 1 Relative to Vehicle” value is 1.8 and the “Relative Levels of Par-4 Secretion” value was 54.4 ± 2.8. Moreover, in series [1], the “Par-4 secretory activity (in words)” value is listed as “diminished activity to varying degrees”. The compound further showed an IC50 against hERG potassium channel of 23.3 ± 3.05 µM.
With `Nc1nc2ccccc2cc1-c1ccccc1F` [Arylquin 15a], in series [1] (Table 2), the “Ratio of Par-4 Secretion by Arylquin 1 Relative to Vehicle” value is listed as 2.8 and the “Relative Levels of Par-4 Secretion” value was 82.1 ± 21.2. For the same compound, the “Par-4 secretory activity (in words)” value in series [1] is given as “decreased Par-4 secretory activity only slightly”. The same compound gave an IC50 on hERG potassium channel of 14.6 ± 5.82 µM.
As for `CN(C)c1ccc2cc(-c3ccccc3F)c(=S)[nH]c2c1` [Arylquin 10], in series [1] (Table 2), the “Ratio of Par-4 Secretion by Arylquin 1 Relative to Vehicle” value amounted to 1.7 and the “Relative Levels of Par-4 Secretion” value was 51.7 ± 4.9. For the same compound, the “Par-4 secretory activity (in words)” value in series [1] is on record as “diminished Par-4 secretory activity relative to arylquinoline 1a”. Also, the concentration for half-maximal inhibition (IC50) against hERG potassium channel was over 100 µM.
As for `CN(C)c1ccc2cc(-c3ccc(F)cc3)c(N)nc2c1` [Arylquin 1f], the “Relative Levels of Par-4 Secretion” value in series [1] (Table 1) stood at 12.3 ± 2.0. In addition, the “Par-4 secretory activity (in words)” value in series [1] is “weakly active”. In addition, on hERG potassium channel, the IC50 is 30.2 ± 10.3 µM.

Source of the values: patent publication US20160332971A1, “ARYLQUINOLINE, ARYLQUINOLONE AND ARYLTHIOQUINOLONE DERIVATIVES AND USE THEREOF TO TREAT CANCER” (UNIVERSITY OF KENTUCKY RESEARCH FOUNDATION, priority 2015, published 2016).
